{
  "source": "paper doi:10.1101/435867v2",
  "about": "(biorxiv, 2018)",
  "key": {"GLO1 [1]": {"molecular_target": "T1, GLO1 (Homo sapiens, UniProt Q04760)", "T1 sequence (Q04760 2-184)": "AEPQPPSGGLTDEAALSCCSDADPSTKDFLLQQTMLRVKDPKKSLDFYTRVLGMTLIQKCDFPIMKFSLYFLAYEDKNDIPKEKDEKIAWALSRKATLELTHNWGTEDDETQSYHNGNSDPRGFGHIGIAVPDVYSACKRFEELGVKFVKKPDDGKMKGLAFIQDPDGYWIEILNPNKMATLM", "experiment": "fluorescence spectroscopy", "format": "binding"}, "GLO1 in PC12 cells": {"molecular_target": "T2, GLO1 in PC12 cells (Rattus norvegicus, UniProt Q6P7Q4)", "T2 sequence (Q6P7Q4 2-184)": "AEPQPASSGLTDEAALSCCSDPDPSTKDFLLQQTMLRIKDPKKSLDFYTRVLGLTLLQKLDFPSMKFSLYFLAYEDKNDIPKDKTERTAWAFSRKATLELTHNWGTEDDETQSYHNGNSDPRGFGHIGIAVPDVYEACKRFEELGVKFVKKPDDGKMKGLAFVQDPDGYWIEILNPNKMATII", "experiment": "cellular thermal shift assay", "format": "cell-based", "conditions": "half-maximal thermal stabilization"}, "GLO1 [2]": {"molecular_target": "T1, GLO1", "experiment": "fluorescence spectroscopy", "format": "binding", "conditions": "298 K, 5 μM GLO1"}},
  "data": [
    {"compound": "O=c1cc(-c2ccc(O)c(O)c2)oc2cc(O)cc(O)c12", "note": "[luteolin]", "values": [
      {"measurement": "Kd", "setting": "GLO1 [1]", "value": 47.2, "unit": "µM"},
      {"measurement": "EC50", "setting": "GLO1 in PC12 cells", "value": 45.2, "unit": "µM"},
      {"measurement": "Ka", "setting": "GLO1 [2]", "value": 21200, "unit": "L/mol"}
    ]}
  ]
}
